Where two headings read alike, the source gives them in different places.
Assays:
[1] = tested on: CYP1A2, 2B6, 2C8, 2C9, 2C19, 2D6, and 3A4; assay: Direct and time-dependent inhibition of all CYPs tested in pooled human liver microsomes; assay type: in vitro ADME; settings: HLM
Method: (§1) The induction potential of Compound A on CYP enzymes was assessed in cryopreserved human hepatocytes from three donors. Following treatment for with Compound A at concentrations of 0.03-30 μM for 48 hours, mRNA levels for CYP1A2, 2B6, 2C8, 2C9, 2C19, and 3A4 were determined by semiquantitative real-time polymerase chain reaction (PCR). Test article concentrations during 24-hour incubation were determined. The potential of Compound A to cause direct and time-dependent inhibition (TDI) of the activities of CYP1A2, 2B6, 2C8, 2C9, 2C19, 2D6, and 3A4 was evaluated in pooled human liver microsomes (HLM) at 0.2-15 μM. Probe substrate concentrations around Km were used for direction inhibition and initial TDI assays. For TDI assay, Compound A was pre-incubated with pooled HLM with and without NADPH for 30 minutes prior to incubation with a single concentration of probe substrate.

CYP3A = CYP3A (Homo sapiens, UniProt P08684); assay: Direct and time-dependent CYP3A inhibition in pooled human liver microsomes; assay type: in vitro ADME; settings: pooled HLM, read-out: IC50, No Pre-incubation
CYP3A, sequence (P08684 2-503): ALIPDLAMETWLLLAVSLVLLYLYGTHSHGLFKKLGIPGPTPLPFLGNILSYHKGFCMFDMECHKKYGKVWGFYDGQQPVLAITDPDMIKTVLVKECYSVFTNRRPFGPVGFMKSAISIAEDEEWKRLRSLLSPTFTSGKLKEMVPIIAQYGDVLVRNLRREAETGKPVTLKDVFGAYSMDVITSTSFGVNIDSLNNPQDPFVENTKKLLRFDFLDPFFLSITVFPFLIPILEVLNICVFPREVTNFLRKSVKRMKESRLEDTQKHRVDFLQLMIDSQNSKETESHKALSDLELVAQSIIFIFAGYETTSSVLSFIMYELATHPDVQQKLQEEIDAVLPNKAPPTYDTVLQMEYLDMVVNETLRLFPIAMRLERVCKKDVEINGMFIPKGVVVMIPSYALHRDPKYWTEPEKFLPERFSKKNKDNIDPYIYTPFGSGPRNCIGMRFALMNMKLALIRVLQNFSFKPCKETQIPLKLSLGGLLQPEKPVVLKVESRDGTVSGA
Method: as §1

OATP1B1 [2] = target: T1, OATP1B1 (Homo sapiens, UniProt Q9Y6L6); assay: OATP1B1 uptake transporter inhibition in MDCKII or HEK293 cells; assay type: in vitro ADME; parameters: expressed in transfected cells; host or cells: MDCKII or HEK293; settings: substrate Rosuvastatin (1 μM)
T1 sequence (Q9Y6L6 1-691): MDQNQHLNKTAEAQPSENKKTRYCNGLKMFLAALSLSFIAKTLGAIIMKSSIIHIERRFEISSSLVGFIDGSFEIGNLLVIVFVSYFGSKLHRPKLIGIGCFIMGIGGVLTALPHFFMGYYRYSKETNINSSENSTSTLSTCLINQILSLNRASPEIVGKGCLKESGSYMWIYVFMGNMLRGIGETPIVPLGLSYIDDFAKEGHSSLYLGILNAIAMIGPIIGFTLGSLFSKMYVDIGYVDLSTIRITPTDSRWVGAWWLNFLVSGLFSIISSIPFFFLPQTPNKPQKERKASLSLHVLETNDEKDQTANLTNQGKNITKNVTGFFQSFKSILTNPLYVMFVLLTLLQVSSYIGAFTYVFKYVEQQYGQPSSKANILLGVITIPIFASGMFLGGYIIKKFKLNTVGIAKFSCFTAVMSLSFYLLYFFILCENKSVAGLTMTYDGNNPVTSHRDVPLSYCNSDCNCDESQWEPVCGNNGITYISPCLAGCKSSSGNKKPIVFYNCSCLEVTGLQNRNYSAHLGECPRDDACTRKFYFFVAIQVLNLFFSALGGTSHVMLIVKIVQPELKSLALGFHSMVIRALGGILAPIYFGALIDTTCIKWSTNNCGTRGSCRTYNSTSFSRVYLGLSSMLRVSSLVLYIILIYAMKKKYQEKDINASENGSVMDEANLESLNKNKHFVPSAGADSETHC
Method: (§2) In addition, the inhibition potential against efflux transporters (P-glycoprotein (Pgp) and breast cancer resistance protein (BCRP)) and uptake transporters (MATE1, MATE2-K, OATP1B1, OATP1B3, OAT1, OAT3, and OCT2) was assessed using single transporter over-expressed cell monolayers (MDCK II or HEK293) or inside-out vesicles.
(§3) The potential of Compound A to inhibit Pgp or BCRP was tested for bidirectional transport of the probe substrates in Pgp or BCRP-expressed MDCKII and control monolayers at Compound A concentrations of 0.07-5 μM. Pgp and BCR inhibition were tested in inside-out membrane vesicles prepared from HEK293 overexpressing human Pgp and BCR at concentrations of 0.01-9 μM Compound A in the presence of 4 mM MgATP or MgAMP.

OATP1B1 [3] = target: T1, OATP1B1; assay: OATP1B1 uptake transporter substrate assay; assay type: in vitro ADME; parameters: expressed in transfected cells; settings: OATP1B1-expressing vs control cell
Method: The potential of Compound A to act as an efflux transporter Pgp and BCRP as well as uptake transporter OATP1B1 and 1B3 were assessed in Caco-2 and single transporter over-expressed HEK29 cells, respectively.
The potential of Compound A to act as a substrate for Pgp and BCRP was examined in Caco-2 cells at the concentrations of 0.075, 0.75, 3.75 and 7.5 μM containing 1% of BSA. After 120 min incubation, the bidirectional permeability of Compound A was determined by LC-MS/MS. The involvement of Compound A as a substrate of OATP1B1 and OATP1B3 was assessed in the uptake transporter substrate assays at 4 concentrations (0.1, 0.5, 1 and 5 μM). Compound A in cell lysates was determined by LC-MS/MS.

OCT2 = target: T2, OCT2 (Homo sapiens, UniProt O15244); assay: OCT2 uptake transporter inhibition in MDCKII or HEK293 cells; assay type: in vitro ADME; settings: substrate Metformin (10 μM)
T2 construct: expressed in transfected cells; host or cells: MDCKII or HEK293
T2 sequence (O15244 whole entry): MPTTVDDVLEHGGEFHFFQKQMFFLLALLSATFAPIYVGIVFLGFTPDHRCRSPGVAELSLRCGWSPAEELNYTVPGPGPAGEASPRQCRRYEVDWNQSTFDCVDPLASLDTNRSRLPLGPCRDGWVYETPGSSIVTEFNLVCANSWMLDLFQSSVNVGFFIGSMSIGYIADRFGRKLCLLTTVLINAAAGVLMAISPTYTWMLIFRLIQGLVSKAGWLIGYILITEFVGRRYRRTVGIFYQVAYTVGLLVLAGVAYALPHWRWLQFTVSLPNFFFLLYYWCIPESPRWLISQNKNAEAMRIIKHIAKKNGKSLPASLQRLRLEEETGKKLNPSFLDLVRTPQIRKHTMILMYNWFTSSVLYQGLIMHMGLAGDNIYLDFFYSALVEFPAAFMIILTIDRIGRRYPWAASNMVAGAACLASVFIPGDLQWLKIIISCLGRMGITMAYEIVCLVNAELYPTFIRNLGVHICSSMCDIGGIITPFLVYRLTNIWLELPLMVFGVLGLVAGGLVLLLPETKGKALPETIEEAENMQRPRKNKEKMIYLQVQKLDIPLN
Method: as §2, §3

CYP2B6 = target: T3, CYP2B6 (Homo sapiens, UniProt P20813); assay: Direct and time-dependent CYP2B6 inhibition in pooled human liver microsomes; assay type: in vitro ADME; settings: pooled HLM, substrate Bupropion 50 μM
T3 construct: evaluated in pooled human liver microsomes (HLM); from tissue; host or cells: pooled human liver microsomes
T3 sequence (P20813 whole entry): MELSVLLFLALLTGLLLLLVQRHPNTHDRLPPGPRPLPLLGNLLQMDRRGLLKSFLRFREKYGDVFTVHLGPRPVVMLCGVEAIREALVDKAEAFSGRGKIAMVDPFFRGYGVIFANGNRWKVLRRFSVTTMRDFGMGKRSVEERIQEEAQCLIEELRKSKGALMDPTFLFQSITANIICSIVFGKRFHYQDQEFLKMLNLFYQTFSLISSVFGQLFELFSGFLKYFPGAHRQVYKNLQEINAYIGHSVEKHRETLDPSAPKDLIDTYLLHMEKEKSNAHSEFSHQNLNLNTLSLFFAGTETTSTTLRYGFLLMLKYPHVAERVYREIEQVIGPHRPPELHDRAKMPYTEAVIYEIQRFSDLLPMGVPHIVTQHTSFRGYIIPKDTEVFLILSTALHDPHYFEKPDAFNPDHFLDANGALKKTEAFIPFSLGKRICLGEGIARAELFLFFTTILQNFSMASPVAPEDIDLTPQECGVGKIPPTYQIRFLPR
Method: as §1

human hepatocytes = assay: Hepatocyte viability, upfront MTT assay; assay type: cell-based; settings: 0.03-30 μM, after 2 days treatment
Method: Positive control inducers behaved as expected (Table 1). Maximal 2.5-8.8-fold induction (4-6% of positive control response) in CYP3A4 mRNA were found at 0.1-0.3 μM in all three donors, and 3.1-fold for CYP2C8 mRNA in one of three lots (donor 3 only) at 0.1 μM (28% of positive control response). The induction response was attenuated at higher concentrations (Table 1).

CYP2C9 mRNA = CYP2C9 mRNA induction in cryopreserved human hepatocytes; assay type: in vitro ADME; settings: 0.03-30 μM; for CYP2C9 mRNA Fold induction: human hepatocytes, 48 hours
CYP2D6 = target: T4, CYP2D6 (Homo sapiens, UniProt P10635); assay: Direct and time-dependent CYP2D6 inhibition in pooled human liver microsomes; assay type: in vitro ADME; settings: pooled HLM, substrate Bufuralol 5 μM
T4 construct: evaluated in pooled human liver microsomes (HLM); from tissue; host or cells: pooled human liver microsomes
T4 sequence (P10635 whole entry): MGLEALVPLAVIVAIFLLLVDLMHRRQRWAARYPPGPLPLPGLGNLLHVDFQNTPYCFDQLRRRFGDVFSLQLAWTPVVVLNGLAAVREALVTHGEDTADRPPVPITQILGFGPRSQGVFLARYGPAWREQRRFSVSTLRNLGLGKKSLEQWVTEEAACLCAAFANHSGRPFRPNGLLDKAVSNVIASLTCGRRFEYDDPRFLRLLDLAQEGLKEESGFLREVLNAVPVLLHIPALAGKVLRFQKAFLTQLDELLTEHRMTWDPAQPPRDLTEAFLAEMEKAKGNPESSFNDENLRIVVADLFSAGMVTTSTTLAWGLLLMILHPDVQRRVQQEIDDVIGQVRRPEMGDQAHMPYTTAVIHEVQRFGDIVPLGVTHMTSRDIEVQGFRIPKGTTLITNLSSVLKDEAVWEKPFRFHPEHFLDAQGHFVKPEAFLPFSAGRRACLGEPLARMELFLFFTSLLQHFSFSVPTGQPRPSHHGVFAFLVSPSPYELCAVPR
Method: as §1

[4] = read-out: IC50, 30 min Pre-incubation
[5] = read-out: IC50, No Pre-incubation

How did the “Direct inhibition, maximal inhibition” value ([1]; all CYPs, up to 15 µM tested) turn out when `COc1cc(O[C@H]2C(C)(C)[C@H](NC(=O)c3ccc(N4CCC(CN5CCN(c6ccc(C(=O)N[C@H]7CCC(=O)NC7=O)c(F)c6)CC5)CC4)cc3)C2(C)C)ccc1C#N` [Compound A, 4-(4-((1-(4-(((1R,3R)-3-(4-cyano-3-methoxyphenoxy)-2,2,4,4-tetramethylcyclobutyl)carbamoyl)phenyl)piperidin-4-yl)methyl)piperazin-1-yl)-N—((S)-2,6-dioxopiperidin-3-yl)-2-fluorobenzamide] was run?
The value was no more than 12%.

What about the “TDI (time-dependent inhibition)” value ([1]; all CYPs, up to 15 µM tested) of the same compound?
The value was no more than 15%.

And the “Direct or time-dependent inhibition” value ([1]; any of the CYP isoforms, 0.2-15 µM)?
The value was “no direct or time-dependent inhibition was observed”.

And the IC50 (CYP3A; probe midazolam (2 μM), substrate Midazolam 2 μM)?
The IC50 was greater than 15 µM.

And the IC50 (CYP3A; probe testosterone (50 μM), substrate Testosterone 50 μM)?
The IC50 was greater than 15 µM.

And the IC50 (OATP1B1 [2])?
The IC50 was greater than 3.75 µM.

And the “Fold accumulation, OATP1B1” value (OATP1B1 [3])?
The value was less than 2 fold.

What about the “Substrate for OATP1B1” value (OATP1B1 [3]; 0.1, 0.5, 1 and 5 μM) of the same compound?
Its value is “not a substrate”.

And the IC50 (OCT2)?
Its IC50 is greater than 3.75 µM.

What about the IC50 (CYP2B6; [4]) of the same compound?
Its IC50 is greater than 15 µM.

What about the IC50 (CYP2B6; [5]) of the same compound?
The IC50 was greater than 15 µM.

And the Hepatocyte viability (human hepatocytes)?
Its Hepatocyte viability is “no significant decrease”.

And the “CYP2C9 mRNA Fold induction” value (CYP2C9 mRNA; Donor 1)?
Its value is less than 2 Fold.

And the “CYP2C9 mRNA Fold induction” value (CYP2C9 mRNA; Donor 2)?
The value was less than 2 Fold.

What about the “CYP2C9 mRNA Fold induction” value (CYP2C9 mRNA; Donor 3) of the same compound?
The value was less than 2 Fold.

And the “Induction of CYP2C9 mRNA” value (CYP2C9 mRNA; all three donors of human hepatocytes)?
Its value is “did not induce”.

What about the IC50 (CYP2D6; [4]) of the same compound?
The IC50 was greater than 15 µM.

And the IC50 (CYP2D6; [5])?
Its IC50 is greater than 15 µM.
